Experimental findings from patent US7550455B2, “8-(piperazin-1yl)- and 8-([1,4]diazepan-1yl)-xanthines, the preparation thereof and their use as pharmaceutical composition” (Boehringer Ingelheim International GmbH, priority 2003, dated 2009) are described below.

One series has as its target T1, DPP-IV (Homo sapiens, UniProt P27487).
T1 construct: The cell extract was obtained from the cells solubilized in a buffer; endogenous in cells; host or cells: Caco-2 (human colon carcinoma), differentiated to induce DPP-IV expression; Nonidet-P40 solubilized extract
In words: DPP-IV assay with Caco-2 cell extract as DPP-IV source. It counts as biochemical. To be noted: extract of human colon carcinoma cell line Caco-2, AFC substrate 100 μM, 60 minutes, room temperature; read-out: DPP IV inhibition IC50. The method, then: The ability of the substances and their corresponding salts to inhibit DPP-IV activity can be shown in a test set-up in which an extract of the human colon carcinoma cell line Caco-2 is utilized as the DPP-IV source. […] The cell extract was obtained from the cells solubilized in a buffer (10 mM tris HCl, 0.15 M NaCl, 0.04 t.i.u. aprotinin, 0.5% Nonidet-P40, pH 8.0) by centrifugation at 35000 g for 30 minutes at 4° C. (for the removal of cell debris).
The DPP-IV assay was carried out as follows:
50 μl of substrate solution (AFC; AFC is amido-4-trifluoromethylcoumarin), final concentration 100 μM, were introduced into black microtitre plates. 20 μl of assay buffer (final concentrations 50 mM tris HCl pH 7.8, 50 mM NaCl, 1% DMSO) were pipetted in. The reaction was started by addition of 30 μl of solubilized Caco-2 protein (final concentration 0.14 μg of protein per well). […] The reaction was carried out at room temperature; the incubation period was 60 minutes. […] Blank values (corresponding to 0% activity) were obtained in batches without Caco-2 protein (volumes replaced by assay buffer), control values (corresponding to 100% activity) were obtained in batches without addition of substance. […]

The next series relates to rats. In words: Tolerability after oral administration to rats (behaviour). It counts as in vivo. To be noted: oral administration of 10 mg/kg.

T1 sequence (P27487 whole entry): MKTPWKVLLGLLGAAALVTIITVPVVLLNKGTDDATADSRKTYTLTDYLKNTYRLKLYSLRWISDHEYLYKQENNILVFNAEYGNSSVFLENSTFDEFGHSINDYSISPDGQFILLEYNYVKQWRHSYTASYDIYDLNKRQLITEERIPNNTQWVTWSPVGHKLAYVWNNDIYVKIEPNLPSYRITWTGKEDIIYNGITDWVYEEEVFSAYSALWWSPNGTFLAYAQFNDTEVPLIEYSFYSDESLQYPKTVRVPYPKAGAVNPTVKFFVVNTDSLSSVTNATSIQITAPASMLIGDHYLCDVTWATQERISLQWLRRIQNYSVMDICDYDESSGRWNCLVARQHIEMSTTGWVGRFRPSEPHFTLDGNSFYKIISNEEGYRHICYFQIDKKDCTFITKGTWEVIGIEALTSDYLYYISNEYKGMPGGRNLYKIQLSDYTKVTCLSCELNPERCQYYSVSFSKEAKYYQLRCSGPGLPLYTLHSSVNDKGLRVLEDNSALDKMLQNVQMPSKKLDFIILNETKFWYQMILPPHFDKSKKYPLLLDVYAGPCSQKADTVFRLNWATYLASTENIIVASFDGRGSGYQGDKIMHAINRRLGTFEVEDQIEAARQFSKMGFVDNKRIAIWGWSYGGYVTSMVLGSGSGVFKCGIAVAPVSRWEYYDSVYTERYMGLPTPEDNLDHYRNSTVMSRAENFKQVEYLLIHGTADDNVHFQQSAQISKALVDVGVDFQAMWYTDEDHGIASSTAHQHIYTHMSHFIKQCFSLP

The IC50 is the concentration that inhibits the measured activity by half. For the compound `CC#CCn1c(N2CCNCC2)nc2c1c(=O)n(Cc1nc(C)cc3ccccc13)c(=O)n2C` [1(1), 1-[(3-Methylisoquinolin-1-yl)methyl]-3-methyl-7-(2-butyn-1-yl)-8-(piperazin-1-yl)-xanthine], the half-inhibitory concentration (IC50) at DPP-IV is 17 nM.

Regarding `CC#CCn1c(N2CCCNCC2)nc2c1c(=O)n(Cc1nc(C)cc3ccccc13)c(=O)n2C` [1(2), 1-[(3-Methylisoquinolin-1-yl)methyl]-3-methyl-7-(2-butyn-1-yl)-8-([1,4]diazepan-1-yl)xanthine], on DPP-IV, the IC50 was found to be 9 nM.

Broadly, the melting point is the temperature of the solid-liquid transition. `CC#CCn1c(N2CCCNCC2)nc2c1c(=O)n(Cc1nc(C)c3ccccc3n1)c(=O)n2C` [1(3), 1-[(4-Methylquinazolin-2-yl)methyl]-3-methyl-7-(2-butyn-1-yl)-8-([1,4]diazepan-1-yl)xanthine] displayed a melting point of 188 to 190 °C. Further, on DPP-IV, the half-inhibitory concentration (IC50) came to 6 nM.

For the compound `CC#CCn1c(N2CCNCC2)nc2c1c(=O)n(Cc1nc(C)c3ccccc3n1)c(=O)n2C` [Example 1, 1-[(4-Methylquinazolin-2-yl)methyl]-3-methyl-7-(2-butyn-1-yl)-8-(piperazin-1-yl)-xanthine], in the series with rats, the “changes in the behaviour of the animals” value is “not possible to observe any changes in the behaviour of the animals”.

In the case of `CC#CCn1c(N2CCCNCC2)nc2c1c(=O)n(Cc1nc3ccccc3c3ccccc13)c(=O)n2C` [Example 1(5), 1-[(Phenanthridin-6-yl)methyl]-3-methyl-7-(2-butyn-1-yl)-8-([1,4]diazepan-1-yl)-xanthine], the melting point is 223 to 225 °C.
